pIC50: −log10 of the molar value. Read-outs that look alike come from different tables or passages of the source.
Legend:
Huh-Luc-Neo Cells = test: CellTiter-Glo Cell Viability Assay; type: cell-based, human; details: 48 h, read-out: Cytotoxicity*
Description: (§1) Day 0, Cell Seeding and Compound Treatment: Huh-Luc-Neo Cells are seeded at 25,000/well in an opaque-walled 96 plate with Growth Medium (DMEM phenol red free+PS+2 mM glutamine; 100 ul/well). The compounds to be tested for inhibition of cell viability are added to the experimental wells (10 μl/well at 10× assay concentration) and the cells are then incubated (5% CO2, 37° C.) for 48 h.
(§2) Day 2, Reagent Preparation and Assay: The CellTiter-Glo Buffer is thawed and equilibrated to room temperature prior to use. The lyophilized CellTiter-Glo Substrate is equilibrated to room temperature prior to use. 10 ml of CellTiter-Glo Buffer is transferred to 1 vial of CellTiter-Glo Substrate and mixed by gently with a Vortex. 100 μl of CellTiter-Glo Assay reagent (CellTiter-Glo Buffer+CellTiter-Glo Substrate Mixture) is added to each well. The well contents are mixed for 5 min. on an orbital shaker at room temperature to induce cell lysis and the luminescence is then measured using a luminometer.

HCV Replicon = HCV Replicon Luciferase Assay; type: cell-based, Hepatitis C virus; details: Huh-Luc-Neo cells, 48 h incubation, luciferase reporter, read-out: Replicon Inhibition*, Luciferase
Description: The identification of inhibitors of HCV replication and/or proliferation has been facilitated by the development of a cell-based system to study HCV replication. Inhibition of HCV replication may be performed using the HCV Replicon Assay developed in the laboratories of Bartenschlager (Lohman et al, Science 285, 110-113, 1999) and Rice (Blight et al, Science 290, 1972-1974, 2000). The assay is performed using the Huh-Luc-Neo cell line (Lohman et al, Science 285, 110-113, 1999). Huh-Luc-Neo cells are a human hepatoma cell line (Huh-7) stably expressing a bi-cistronic subgenomic replicon containing the HCV IRES in which the structural proteins of HCV have been deleted and replaced by a construct containing sequences coding for the firefly luciferase reporter gene, the neomycin selectable marker and the EMCV IRES to direct expression of a truncated HCV genome expressing the […] NS3, NS4A, NS4B, NS5A, and NS5B. HCV targets through which inhibitors could act to inhibit replication include the NS3 protease, the helicase/ATPase, NS5A, the NS5B-RNA dependent RNA polymerase, and the HCV IRES.
(§3) Expression of HCV IRES driven luciferase reporter activity and HCV RNA is measured to obtain indirect and direct measures of replication of HCV RNA respectively. Inhibitors of HCV replication and/or proliferation are determined by initially identifying molecules that inhibit expression of the HCV IRES driven luciferase reporter in this HCV Replicon Luciferase Assay. Cell viability assays and control cell based luciferase assays are then run on hits identified in the HCV Replicon Luciferase Assay to eliminate cytoxic compounds and non-specific compounds which act by inhibiting the luciferase enzyme.
as §1, with “μl/well).” for “ul/well).”, “tested” for “tested for inhibition of cell viability”
Day 2, Reagent Preparation and Luciferase Assay: The Bright-Glo Luciferase Assay Buffer (Promega) is thawed and equilibrated to room temperature prior to use. The lyophilized Bright-Glo Luciferase Assay Substrate is equilibrated to room temperature prior to use. 10 ml of Bright-Glo Luciferase Assay Buffer is transferred to 1 vial of Bright-Glo Luciferase Assay Substrate bottle and mixed by gently with a Vortex. 100 μl of Bright-Glo Luciferase Assay reagent (Bright-Glo Luciferase Assay Buffer+Bright-Glo Luciferase Assay Substrate Mixture) is added to each well. The well contents are mixed for 5 min. on an orbital shaker at room temperature to induce cell lysis and the luminescence is then measured using a luminometer. The data is analyzed and IC50s are determined using GraphPad Prism 4 software. Hits validated in the Replicon Luciferase assay have IC50s<8.0 μM and show <30% inhibition of Cell Viability at a compound concentration of 100 μM (Cell Titer Glow Assay, cell viability assay conditions identical to HCV Replicon Luciferase Assay conditions).

HCV RNA = test: HCV Replicon RNA Assay (Taqman); type: cell-based, Hepatitis C virus; details: Huh-Luc-Neo cells, compound re-added at 24 h, HCV RNA by quantitative PCR, read-out: Replicon Inhibition*, Taqman
Description: as §3
as §1, with “μl/well).” for “ul/well).”, “tested” for “tested for inhibition of cell viability”, “C.).” for “C.) for 48 h.”
Day 1, Media Change and Compound Treatment: 24 hours after the initial compound treatment the cell culture media is aspirated from the wells and fresh Growth Medium is added (DMEM phenol red free+PS+2 mM glutamine; 100 μl/well). The compounds to be tested are then added to the appropriate experimental wells (10 μl/well at 10× assay concentration) and the cells are then incubated (5% CO2, 37° C.) for an additional 24 hrs.
Day 2, RNA Isolation and cDNA Synthesis: The cells are washed with 1× Phosphate Buffered Saline (PBS) once.
Day 3, Quantitative PCR Based Measurement of HCV RNA (Taqman Assay): Quantitative PCR analysis to measure HCV RNA expression from cDNA synthesized on Day 2 is performed using the ABI 9700 HT Sequence Detection System (Applied Biosystems) as previously described (Lohman et al, Science 285, 110-113, 1999). The data is analyzed and IC50s are determined using GraphPad Prism 4 software. Hits validated in the Replicon RNA Assay have IC50s<8.0 μM and show <30% inhibition of Cell Viability at a compound concentration of 50 μM (Cell Titer Glow Assay, cell viability assay conditions identical to HCV Replicon RNA Assay conditions).

[1] = CellTiter-Glo Cell Viability Assay; type: cell-based, human; details: human, Huh-Luc-Neo cells, read-out: Cytotoxicity*
Description: as §1, §2

SMILES	pIC50 (Huh-Luc-Neo Cells)	pIC50 (HCV Replicon; Hepatitis C virus)	pIC50 (HCV RNA; Hepatitis C virus)	pIC50 (HCV Replicon)	pIC50 (HCV RNA)	IC50 at 48 h [1] [µM]
Cn1c(=O)cc(Sc2ccccc2F)c2ccccc21 [compound 005]	4.00 to 5.00	5.00 to 6.00	5.00 to 6.00			
Cn1c(=O)cc(Sc2ccccc2F)c2ccccc21 [compound 008]	< 4.00			5.00 to 6.00	5.00 to 6.00	
C[C@H](OCc1ccccc1)[C@@H](NC(=O)OC(C)(C)C)C(=O)Nc1ccc(Sc2cc(=O)n(C)c3ccccc23)cc1 [compound 023]		5.00 to 6.00	5.00 to 6.00			> 100
Cn1c(=O)cc(Sc2cccc(F)c2)c2ccccc21 [compound 007]		5.00 to 6.00	5.00 to 6.00			> 100
Cc1ccc2c(c1)c(Sc1ccc(N)cc1)cc(=O)n2C [compound 033]		> 6.00	> 6.00			> 100
COc1ccc(Sc2cc(=O)n(C)c3ccccc23)cc1 [compound 012]		5.00 to 6.00	4.00 to 5.00			> 100
Cc1cc2c(Sc3ccc(N)cc3)cc(=O)n(C)c2cc1C [compound 035]		> 6.00	> 6.00			> 100
Cn1c(=O)cc(Sc2ccc(N)cc2)c2ccccc21 [compound 009]		> 6.00	> 6.00			> 100
Cn1c(=O)cc(Sc2ccc(Br)cc2)c2cc(Cl)ccc21 [compound 011]		5.00 to 6.00	5.00 to 6.00			> 100
COc1ccc2c(c1)c(Sc1ccc(C)cc1)cc(=O)n2C [compound 029]		> 6.00	> 6.00			> 100
Cn1c(=O)cc(Sc2ccc(Cl)cc2)c2ccccc21 [compound 002]		5.00 to 6.00	5.00 to 6.00			> 100
Cn1c(=O)cc(Sc2ccc(NC(=O)[C@H](Cc3ccc(F)cc3)NC(=O)OC(C)(C)C)cc2)c2ccccc21 [compound 025]		5.00 to 6.00	5.00 to 6.00			> 100
Cc1ccc2c(c1)c(Sc1ccc(Cl)cc1)cc(=O)n2C [compound 028]		> 6.00	> 6.00			10 to 100

Reference: patent US8143276B2, “4-thio substituted quinoline and naphthyridine compounds” (XTL Biopharmaceuticals Ltd., priority 2007, dated 2012)
